Reference: ChEMBL document CHEMBL5678812, “Inhibitors of p21-activated kinases (PAKs)” (J Med Chem, 2015)

Legend:
[1] = target: Casein kinase I isoform epsilon (Homo sapiens) (UniProt P49674); assay: Inhibition of CK1epsilon (unknown origin) at 0.1 uM relative to control
[2] = target: Mitogen-activated protein kinase kinase kinase kinase 4 (Homo sapiens) (UniProt O95819); assay: Inhibition of MAP4K4 (unknown origin) at 0.1 uM relative to control
[3] = target: Mitogen-activated protein kinase 13 (Homo sapiens) (UniProt O15264); assay: Inhibition of p38delta (unknown origin) at 0.1 uM relative to control
[4] = target: Serine/threonine-protein kinase Chk1 (Homo sapiens) (UniProt O14757); assay: Inhibition of CHK1 (unknown origin) at 0.1 uM relative to control
[5] = target: Serine/threonine-protein kinase Nek1 (Homo sapiens) (UniProt Q96PY6); assay: Inhibition of NEK1 (unknown origin) at 0.1 uM relative to control
[6] = system: RAF proto-oncogene serine/threonine-protein kinase (Homo sapiens), P04049 [Y340D,Y341D]; assay: Inhibition of RAF1 Y340D/Y341D double mutant (unknown origin) at 0.1 uM relative to control
[7] = target: Activin receptor type-1B (Homo sapiens) (UniProt P36896); assay: Inhibition of ACVRB (unknown origin) at 0.1 uM relative to control
[8] = target: Tyrosine-protein kinase Blk (Homo sapiens) (UniProt P51451); assay: Inhibition of Blk (unknown origin) at 0.1 uM relative to control
[9] = target: Serine/threonine-protein kinase PAK 2 (Homo sapiens, UniProt Q13177); assay: Inhibition of PAK2 (unknown origin) at 0.1 uM relative to control
[10] = target: Cytoplasmic tyrosine-protein kinase BMX (Homo sapiens) (UniProt P51813); assay: Inhibition of Bmx (unknown origin) at 0.1 uM relative to control
[11] = target: Serine/threonine-protein kinase TBK1 (Homo sapiens) (UniProt Q9UHD2); assay: Inhibition of TBK1 (unknown origin) at 0.1 uM relative to control
[12] = target: Tyrosine-protein kinase ZAP-70 (Homo sapiens) (UniProt P43403); assay: Inhibition of ZAP-70 (unknown origin) at 0.1 uM relative to control
[13] = target: Serine/threonine-protein kinase B-raf (Homo sapiens) (UniProt P15056); assay: Inhibition of B-Raf (unknown origin) at 0.1 uM relative to control
[14] = target: Receptor-type tyrosine-protein kinase FLT3 (Homo sapiens) (UniProt P36888); assay: Inhibition of Flt3 (unknown origin) at 0.1 uM relative to control
[15] = target: Vascular endothelial growth factor receptor 2 (Homo sapiens) (UniProt P35968); assay: Inhibition of KDR (unknown origin) at 0.1 uM relative to control
[16] = target: Dual specificity tyrosine-phosphorylation-regulated kinase 3 (Homo sapiens) (UniProt O43781); assay: Inhibition of DYRK3 (unknown origin) at 0.1 uM relative to control
[17] = target: Tyrosine-protein kinase ABL2 (Homo sapiens) (UniProt P42684); assay: Inhibition of Arg (unknown origin) at 0.1 uM relative to control
[18] = target: Serine/threonine-protein kinase TAO1 (Homo sapiens) (UniProt Q7L7X3); assay: Inhibition of TAO1 (unknown origin) at 0.1 uM relative to control
[19] = target: Vascular endothelial growth factor receptor 1 (Homo sapiens) (UniProt P17948); assay: Inhibition of Flt1 (unknown origin) at 0.1 uM relative to control
[20] = target: Mitogen-activated protein kinase kinase kinase 8 (Homo sapiens) (UniProt P41279); assay: Inhibition of Cot (unknown origin) at 0.1 uM relative to control
[21] = target: Ephrin type-B receptor 4 (Homo sapiens) (UniProt P54760); assay: Inhibition of EphB4 (unknown origin) at 0.1 uM relative to control
[22] = target: Serine/threonine-protein kinase 24 (Homo sapiens) (UniProt Q9Y6E0); assay: Inhibition of MST3 (unknown origin) at 0.1 uM relative to control
[23] = target: Mitogen-activated protein kinase kinase kinase kinase 2 (Homo sapiens) (UniProt Q12851); assay: Inhibition of GCK (unknown origin) at 0.1 uM relative to control
[24] = target: Serine/threonine-protein kinase pim-1 (Homo sapiens) (UniProt P11309); assay: Inhibition of PIM1 (unknown origin) at 0.1 uM relative to control
[25] = target: Protein-tyrosine kinase 6 (Homo sapiens) (UniProt Q13882); assay: Inhibition of Brk (unknown origin) at 0.1 uM relative to control
[26] = target: Ephrin type-A receptor 2 (Homo sapiens) (UniProt P29317); assay: Inhibition of EphA2 (unknown origin) at 0.1 uM relative to control
[27] = target: Testis-specific serine/threonine-protein kinase 1 (Homo sapiens) (UniProt Q9BXA7); assay: Inhibition of TSSK1 (unknown origin) at 0.1 uM relative to control
[28] = target: RAC-alpha serine/threonine-protein kinase (Homo sapiens) (UniProt P31749); assay: Inhibition of AKT1 (unknown origin) at 0.1 uM relative to control
[29] = target: Myosin light chain kinase 2, skeletal/cardiac muscle (Homo sapiens) (UniProt Q9H1R3); assay: Inhibition of MYLK2 (unknown origin) at 0.1 uM relative to control
[30] = target: Misshapen-like kinase 1 (Homo sapiens) (UniProt Q8N4C8); assay: Inhibition of Mink1 (unknown origin) at 0.1 uM relative to control
[31] = target: Cyclin-dependent kinase 1/cyclin B1 (Homo sapiens) (UniProt P06493+P14635); assay: Inhibition of CDK1/cyclinB (unknown origin) at 0.1 uM relative to control; type: protein-complex assay
[32] = target: Serine/threonine-protein kinase PAK 4 (Homo sapiens, UniProt O96013); assay: Inhibition of PAK4 (unknown origin) at 0.1 uM relative to control
[33] = target: Fibroblast growth factor receptor 2 (Homo sapiens) (UniProt P21802); assay: Inhibition of FGFR2 (unknown origin) at 0.1 uM relative to control
[34] = target: Serine/threonine-protein kinase N1 (Homo sapiens) (UniProt Q16512); assay: Inhibition of PRK1 (unknown origin) at 0.1 uM relative to control
[35] = target: Receptor tyrosine-protein kinase erbB-4 (Homo sapiens) (UniProt Q15303); assay: Inhibition of ErbB4 (unknown origin) at 0.1 uM relative to control
[36] = target: Tyrosine-protein kinase SYK (Homo sapiens) (UniProt P43405); assay: Inhibition of Syk (unknown origin) at 0.1 uM relative to control
[37] = target: Ribosomal protein S6 kinase alpha-3 (Homo sapiens) (UniProt P51812); assay: Inhibition of Rsk2 (unknown origin) at 0.1 uM relative to control
[38] = target: Tyrosine-protein kinase ABL1 (Homo sapiens) (UniProt P00519); assay: Inhibition of Abl (unknown origin) at 0.1 uM relative to control
[39] = target: Serine/threonine-protein kinase Nek9 (Homo sapiens) (UniProt Q8TD19); assay: Inhibition of NEK9 (unknown origin) at 0.1 uM relative to control

Chain of Tyrosine-protein kinase ZAP-70 (Homo sapiens) (P43403 whole entry): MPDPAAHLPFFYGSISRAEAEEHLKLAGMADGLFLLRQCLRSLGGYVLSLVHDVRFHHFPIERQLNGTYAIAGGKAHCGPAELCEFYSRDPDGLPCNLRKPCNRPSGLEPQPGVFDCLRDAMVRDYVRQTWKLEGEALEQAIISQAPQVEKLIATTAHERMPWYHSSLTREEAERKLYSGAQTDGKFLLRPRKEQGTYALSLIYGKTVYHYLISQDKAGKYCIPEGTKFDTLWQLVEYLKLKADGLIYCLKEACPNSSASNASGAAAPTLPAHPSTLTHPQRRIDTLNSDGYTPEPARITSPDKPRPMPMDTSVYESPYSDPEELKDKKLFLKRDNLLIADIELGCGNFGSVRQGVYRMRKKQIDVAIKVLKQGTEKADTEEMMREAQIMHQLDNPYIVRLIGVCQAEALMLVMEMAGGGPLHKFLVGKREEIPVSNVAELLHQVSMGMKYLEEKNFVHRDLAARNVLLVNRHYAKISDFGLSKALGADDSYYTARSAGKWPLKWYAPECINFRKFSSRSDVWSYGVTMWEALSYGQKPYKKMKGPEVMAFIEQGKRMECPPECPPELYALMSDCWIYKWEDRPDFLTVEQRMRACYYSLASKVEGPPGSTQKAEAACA
Chain of Receptor tyrosine-protein kinase erbB-4 (Homo sapiens) (Q15303 whole entry): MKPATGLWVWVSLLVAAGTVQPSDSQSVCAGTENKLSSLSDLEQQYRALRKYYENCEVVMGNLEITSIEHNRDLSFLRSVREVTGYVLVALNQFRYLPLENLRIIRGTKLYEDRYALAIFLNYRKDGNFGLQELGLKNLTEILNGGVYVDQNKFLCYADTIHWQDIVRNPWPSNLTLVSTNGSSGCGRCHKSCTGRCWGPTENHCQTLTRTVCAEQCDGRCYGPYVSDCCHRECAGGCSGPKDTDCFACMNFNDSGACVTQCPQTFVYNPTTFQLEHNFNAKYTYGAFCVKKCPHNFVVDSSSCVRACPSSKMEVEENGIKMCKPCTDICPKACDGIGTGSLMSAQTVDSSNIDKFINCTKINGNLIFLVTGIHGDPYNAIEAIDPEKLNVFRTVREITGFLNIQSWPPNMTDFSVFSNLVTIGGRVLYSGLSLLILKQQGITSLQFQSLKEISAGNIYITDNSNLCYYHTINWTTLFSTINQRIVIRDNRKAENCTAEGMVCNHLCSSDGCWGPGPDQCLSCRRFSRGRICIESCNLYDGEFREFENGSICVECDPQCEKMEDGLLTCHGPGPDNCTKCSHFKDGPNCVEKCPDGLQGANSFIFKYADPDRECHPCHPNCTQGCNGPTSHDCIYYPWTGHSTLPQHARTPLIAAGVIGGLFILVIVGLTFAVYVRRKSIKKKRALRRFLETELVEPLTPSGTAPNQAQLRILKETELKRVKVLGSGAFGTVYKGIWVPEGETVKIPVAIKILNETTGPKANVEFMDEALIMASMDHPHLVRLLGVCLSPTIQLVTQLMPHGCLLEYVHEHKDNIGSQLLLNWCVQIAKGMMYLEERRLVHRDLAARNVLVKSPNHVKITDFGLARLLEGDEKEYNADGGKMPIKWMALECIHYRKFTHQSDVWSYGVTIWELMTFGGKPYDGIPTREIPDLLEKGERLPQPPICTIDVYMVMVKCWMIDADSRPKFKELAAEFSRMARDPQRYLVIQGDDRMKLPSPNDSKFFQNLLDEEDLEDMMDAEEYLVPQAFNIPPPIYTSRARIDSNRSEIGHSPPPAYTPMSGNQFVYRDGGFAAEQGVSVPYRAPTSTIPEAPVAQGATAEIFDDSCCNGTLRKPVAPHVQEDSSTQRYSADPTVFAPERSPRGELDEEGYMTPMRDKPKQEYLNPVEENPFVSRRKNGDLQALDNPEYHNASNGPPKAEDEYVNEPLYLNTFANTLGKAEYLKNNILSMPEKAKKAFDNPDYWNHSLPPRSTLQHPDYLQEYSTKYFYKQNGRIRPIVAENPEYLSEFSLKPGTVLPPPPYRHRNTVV
Chain of Casein kinase I isoform epsilon (Homo sapiens) (P49674 whole entry, looked up, canonical isoform): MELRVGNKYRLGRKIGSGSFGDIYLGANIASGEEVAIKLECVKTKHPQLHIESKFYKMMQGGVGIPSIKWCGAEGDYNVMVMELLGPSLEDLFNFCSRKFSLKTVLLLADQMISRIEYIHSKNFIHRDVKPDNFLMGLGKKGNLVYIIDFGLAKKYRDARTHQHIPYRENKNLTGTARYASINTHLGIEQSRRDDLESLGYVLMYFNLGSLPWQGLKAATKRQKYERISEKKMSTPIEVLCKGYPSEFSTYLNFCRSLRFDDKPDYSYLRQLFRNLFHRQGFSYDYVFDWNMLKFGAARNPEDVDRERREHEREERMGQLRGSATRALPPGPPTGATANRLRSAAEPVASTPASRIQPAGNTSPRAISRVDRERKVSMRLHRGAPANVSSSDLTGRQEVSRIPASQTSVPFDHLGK
Chain of Mitogen-activated protein kinase kinase kinase kinase 2 (Homo sapiens) (Q12851 whole entry): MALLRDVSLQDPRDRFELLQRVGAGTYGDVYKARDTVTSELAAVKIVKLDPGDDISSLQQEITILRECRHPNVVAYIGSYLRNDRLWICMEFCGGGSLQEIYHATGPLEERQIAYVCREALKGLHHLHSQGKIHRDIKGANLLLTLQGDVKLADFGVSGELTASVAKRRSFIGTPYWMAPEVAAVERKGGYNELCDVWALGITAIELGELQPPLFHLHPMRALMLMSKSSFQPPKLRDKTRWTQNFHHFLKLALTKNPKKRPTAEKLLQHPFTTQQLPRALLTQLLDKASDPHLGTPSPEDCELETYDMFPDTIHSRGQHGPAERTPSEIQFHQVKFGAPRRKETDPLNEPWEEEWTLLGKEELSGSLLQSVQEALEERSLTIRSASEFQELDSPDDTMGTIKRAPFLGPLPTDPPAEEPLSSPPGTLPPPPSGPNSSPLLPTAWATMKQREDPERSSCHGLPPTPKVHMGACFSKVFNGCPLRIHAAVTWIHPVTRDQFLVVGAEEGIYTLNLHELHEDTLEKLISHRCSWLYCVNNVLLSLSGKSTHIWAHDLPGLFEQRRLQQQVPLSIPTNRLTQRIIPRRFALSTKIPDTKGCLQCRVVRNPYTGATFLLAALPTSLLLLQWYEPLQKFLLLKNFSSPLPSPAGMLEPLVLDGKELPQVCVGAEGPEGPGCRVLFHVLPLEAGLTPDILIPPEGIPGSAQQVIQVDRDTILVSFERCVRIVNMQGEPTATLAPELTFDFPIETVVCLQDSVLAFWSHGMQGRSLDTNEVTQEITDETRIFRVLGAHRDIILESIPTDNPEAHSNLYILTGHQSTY
Chain of Cytoplasmic tyrosine-protein kinase BMX (Homo sapiens) (P51813 whole entry): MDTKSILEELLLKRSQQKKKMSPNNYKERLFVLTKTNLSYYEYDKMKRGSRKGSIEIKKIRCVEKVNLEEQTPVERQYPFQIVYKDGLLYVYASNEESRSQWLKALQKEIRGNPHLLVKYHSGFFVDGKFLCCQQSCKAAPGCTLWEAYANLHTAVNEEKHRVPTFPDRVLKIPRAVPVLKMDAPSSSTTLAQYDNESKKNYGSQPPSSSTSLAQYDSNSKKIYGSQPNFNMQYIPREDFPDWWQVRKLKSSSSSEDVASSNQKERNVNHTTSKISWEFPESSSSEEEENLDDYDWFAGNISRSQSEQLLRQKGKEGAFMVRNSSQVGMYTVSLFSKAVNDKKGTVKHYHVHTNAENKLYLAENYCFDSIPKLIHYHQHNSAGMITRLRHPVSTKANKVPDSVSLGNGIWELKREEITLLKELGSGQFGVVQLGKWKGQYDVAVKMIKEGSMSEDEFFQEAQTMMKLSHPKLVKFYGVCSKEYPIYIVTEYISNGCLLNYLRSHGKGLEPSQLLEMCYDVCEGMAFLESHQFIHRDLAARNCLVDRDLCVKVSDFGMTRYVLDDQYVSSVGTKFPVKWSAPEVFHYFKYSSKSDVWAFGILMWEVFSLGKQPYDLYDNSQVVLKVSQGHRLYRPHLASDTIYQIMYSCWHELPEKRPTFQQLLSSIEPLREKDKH
Chain of Myosin light chain kinase 2, skeletal/cardiac muscle (Homo sapiens) (Q9H1R3 whole entry): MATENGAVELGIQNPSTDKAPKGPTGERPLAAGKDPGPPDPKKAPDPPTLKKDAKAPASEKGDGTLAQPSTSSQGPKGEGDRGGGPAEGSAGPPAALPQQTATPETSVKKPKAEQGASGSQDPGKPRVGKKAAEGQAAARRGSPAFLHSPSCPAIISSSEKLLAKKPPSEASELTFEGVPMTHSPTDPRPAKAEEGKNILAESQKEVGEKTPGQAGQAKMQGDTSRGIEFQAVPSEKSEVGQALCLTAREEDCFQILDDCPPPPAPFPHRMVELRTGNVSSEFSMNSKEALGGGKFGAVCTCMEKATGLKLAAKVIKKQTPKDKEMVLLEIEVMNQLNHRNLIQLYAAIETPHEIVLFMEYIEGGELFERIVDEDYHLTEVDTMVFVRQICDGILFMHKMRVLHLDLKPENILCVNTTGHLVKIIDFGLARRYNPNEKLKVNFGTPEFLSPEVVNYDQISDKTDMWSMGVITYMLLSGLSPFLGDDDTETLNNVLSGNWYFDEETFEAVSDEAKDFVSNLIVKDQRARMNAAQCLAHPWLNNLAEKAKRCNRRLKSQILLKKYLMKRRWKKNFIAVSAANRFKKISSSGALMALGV
Chain of Serine/threonine-protein kinase 24 (Homo sapiens) (Q9Y6E0 whole entry, looked up): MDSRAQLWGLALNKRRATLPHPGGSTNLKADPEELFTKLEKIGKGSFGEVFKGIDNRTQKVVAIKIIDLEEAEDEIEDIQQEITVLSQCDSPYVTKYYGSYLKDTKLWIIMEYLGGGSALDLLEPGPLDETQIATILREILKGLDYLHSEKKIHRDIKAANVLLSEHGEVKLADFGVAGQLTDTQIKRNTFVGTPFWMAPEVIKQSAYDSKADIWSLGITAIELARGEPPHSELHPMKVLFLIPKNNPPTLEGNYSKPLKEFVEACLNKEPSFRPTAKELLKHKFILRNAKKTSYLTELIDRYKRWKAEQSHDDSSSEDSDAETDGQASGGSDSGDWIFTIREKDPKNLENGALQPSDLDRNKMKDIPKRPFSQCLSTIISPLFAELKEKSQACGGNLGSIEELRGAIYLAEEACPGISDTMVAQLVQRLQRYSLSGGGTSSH

Row | SMILES | inhibition [1] | inhibition [2] | inhibition [3] | inhibition [4] | inhibition [5] | inhibition [6] | inhibition [7] | inhibition [8] | inhibition [9] | inhibition [10] | inhibition [11] | inhibition [12] | inhibition [13] | inhibition [14] | inhibition [15] | inhibition [16] | inhibition [17] | inhibition [18] | inhibition [19] | inhibition [20] | other results
1 | CN1CCc2cc(-c3cnc4[nH]cc(C(=O)c5ccccc5Cl)c4c3)ccc2C1 | 44% | 104% | 5.1% | 19.1% | 1.5% | -4.8% | 79.3% | 86% | 97.7% | 91.5% | 4.3% | 4.5% | 49% | 83.4% | 72.2% | 3.8% | 95.3% | 91.5% | 18.6% | 19.6% | inhibition [21]: 78.9%; inhibition [22]: 70.2%; inhibition [23]: 69.8%; inhibition [24]: -2%; inhibition [25]: 92.5%; inhibition [26]: 43.5%; inhibition [27]: 28%; inhibition [28]: 3.3%; inhibition [29]: 25.5%; inhibition [30]: 97%; inhibition [31]: 16.5%; inhibition [32]: 29.2%; inhibition [33]: 55.6%; inhibition [34]: -1.6%; inhibition [35]: 78.9%; inhibition [36]: 37.1%; inhibition [37]: 6%; inhibition [38]: 99.5%; inhibition [39]: -0.9%
2 | COCCNc1nc2ccc(C#CC3(O)CCCCC3)cc2n1-c1ccnc(N)n1 | 7.3% | 14.6% | 8.4% | -3.5% | 0.3% | 7.6% | -0.1% | 7.2% | 14.9% | 11.6% | 11.6% | 2.4% | 8.2% | 8.7% | -3.1% | 0.9% | 10.2% | -0.2% | -6% | 2.8% | inhibition [21]: 5.3%; inhibition [22]: 5.9%; inhibition [23]: 1%; inhibition [24]: 3.8%; inhibition [25]: 10.2%; inhibition [26]: 15%; inhibition [27]: 6.2%; inhibition [28]: 1.1%; inhibition [29]: -1.5%; inhibition [30]: 4.4%; inhibition [31]: 8.1%; inhibition [32]: 89.5%; inhibition [33]: 6.8%; inhibition [34]: -2.3%; inhibition [35]: -1%; inhibition [36]: 4.3%; inhibition [37]: 11.7%; inhibition [38]: -0.2%; inhibition [39]: 1.6%
